Reference: US8802597B2, “Herbicidal pyrimidines” (E I du Pont de Nemours and Company, priority 2003, dated 2014)

How the values were obtained:
Assay type in all cases: in vivo
[1] = system: barnyardgrass (Echinochloa crus-galli); experiment: Test B flooded paddy test; details: Flood, 1000 g ai/ha; scale 0 (no effect) to 100 (complete control)
In short: (§1)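 Plants were grown to the 2-leaf stage before treatment, then kept in a greenhouse for 13 to 15 days. Injury was rated visually against untreated controls on a 0 to 100 scale, where 0 is no effect and 100 is complete control.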

[2] = system: umbrella sedge (Cyperus difformis); experiment: Test B flooded paddy test; details: Flood, 1000 g ai/ha; scale 0 to 100
In short: as §1

rice (Oryza sativa) = experiment: Test B flooded paddy test; details: Flood, 1000 g ai/ha; scale 0 to 100
In short: as §1

[3] = system: duck salad (Heteranthera limosa); experiment: Test B flooded paddy test; details: Flood, 1000 g ai/ha; scale 0 to 100
In short: as §1

[4] = system: blackgrass (Alopecurus myosuroides); experiment: Test B postemergence
In short: (§2)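 Plants treated pre- or postemergence were compared visually with controls after 13 to 15 days. Ratings ran from 0, no effect, to 100, complete control.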

wild oat (Avena fatua) = experiment: Test B postemergence
In short: as §2

[5] = system: velvetleaf (Abutilon theophrasti); experiment: Test B pre/postemergence
In short: as §2

[6] = system: giant foxtail (Setaria faberii); experiment: Test B pre/postemergence
In short: as §2

[7] = system: cocklebur (Xanthium strumarium); experiment: Test B pre/postemergence
In short: as §2

[8] = system: morningglory (Ipomoea coccinea); experiment: Test B pre/postemergence
In short: as §2

[9] = system: barnyardgrass (Echinochloa crus-galli); experiment: Test B pre/postemergence
In short: as §2

[10] = system: wheat (Triticum aestivum); experiment: Test B pre/postemergence
In short: as §2

corn (Zea mays) = experiment: Test B pre/postemergence
In short: as §2

[11] = system: Surinam grass (Brachiaria decumbens); experiment: Test B pre/postemergence; details: for Surinam Grass plant response rating: scale 0 to 100 (0 no effect, 100 complete control)
In short: as §2

[12] = system: crabgrass (Digitaria sanguinalis); experiment: Test B pre/postemergence
In short: as §2

[13] = system: pigweed (Amaranthus retroflexus); experiment: Test B pre/postemergence
In short: as §2

[14] = system: lambsquarters (Chenopodium album); experiment: Test B pre/postemergence
In short: as §2

[15] = 125 g ai/ha, scale 0 to 100 (0 no effect, 100 complete control)
[16] = Postemergence, 125 g ai/ha, scale 0 to 100 (0 no effect, 100 complete control)
[17] = Postemergence, 500 g ai/ha, scale 0 to 100
[18] = Preemergence, 125 g ai/ha, scale 0 to 100 (0 no effect, 100 complete control)
[19] = Preemergence, 500 g ai/ha, scale 0 to 100 (0 no effect, 100 complete control)

Structure (SMILES): CCOC(=O)c1nc(-c2ccc(Cl)cc2)nc(N)c1Br [Compound 37]
- Plant response rating, Barnyardgrass [1]: 20
- Plant response rating, Sedge, Umbrella [2]: 90
- Plant response rating, Rice (rice (Oryza sativa)): 0
- Plant response rating, Ducksalad [3]: 100
- Blackgrass plant response rating [4, 15]: 40
- Plant response rating, Blackgrass ([4]; 500 g ai/ha, scale 0 to 100): 60
- Oat, Wild plant response rating (wild oat (Avena fatua); [15]): 0
- Plant response rating, Oat, Wild (wild oat (Avena fatua); 500 g ai/ha, scale 0 to 100): 0
- Velvetleaf plant response rating [5, 16]: 80
- Plant response rating, Velvetleaf [5, 17]: 100
- Plant response rating, Velvetleaf [5, 18]: 40
- Velvetleaf plant response rating [5, 19]: 80
- Foxtail, Giant plant response rating [6, 16]: 10
- Plant response rating, Foxtail, Giant [6, 17]: 60
- Plant response rating, Foxtail, Giant [6, 18]: 10
- Foxtail, Giant plant response rating [6, 19]: 60
- Cocklebur plant response rating [7, 16]: 100
- Plant response rating, Cocklebur [7, 17]: 100
- Plant response rating, Cocklebur [7, 18]: 20
- Cocklebur plant response rating [7, 19]: 80
- Morningglory plant response rating [8, 16]: 90
- Plant response rating, Morningglory [8, 17]: 100
- Plant response rating, Morningglory [8, 18]: 10
- Morningglory plant response rating [8, 19]: 50
- Barnyardgrass plant response rating [9, 16]: 0
- Plant response rating, Barnyardgrass [9, 17]: 90
- Plant response rating, Barnyardgrass [9, 18]: 10
- Barnyardgrass plant response rating [9, 19]: 40
- Wheat plant response rating [10, 16]: 0
- Plant response rating, Wheat [10, 17]: 60
- Plant response rating, Wheat [10, 18]: 30
- Plant response rating, Wheat [10, 19]: 60
- Corn plant response rating (corn (Zea mays); [16]): 0
- Plant response rating, Corn (corn (Zea mays); [17]): 70
- Plant response rating, Corn (corn (Zea mays); [18]): 0
- Corn plant response rating (corn (Zea mays); [19]): 10
- Surinam Grass plant response rating ([11]; Postemergence, 125 g ai/ha): 20
- Plant response rating, Surinam Grass [11, 17]: 70
- Surinam Grass plant response rating ([11]; Preemergence, 500 g ai/ha): 40
- Crabgrass plant response rating [12, 16]: 60
- Plant response rating, Crabgrass [12, 17]: 80
- Plant response rating, Crabgrass [12, 18]: 50
- Crabgrass plant response rating [12, 19]: 90
- Pigweed plant response rating [13, 16]: 100
- Plant response rating, Pigweed [13, 17]: 100
- Plant response rating, Pigweed [13, 18]: 100
- Pigweed plant response rating [13, 19]: 100
- Lambsquarters plant response rating [14, 16]: 100
- Plant response rating, Lambsquarters [14, 17]: 100
- Plant response rating, Lambsquarters [14, 18]: 100
- Lambsquarters plant response rating [14, 19]: 100
